Experimental data taken from the NIST ThermoML archive (doi:10.1021/acs.jced.7b01085).
± gives the expanded uncertainty stated by the source.

Experiments:
[1] = Molar enthalpy of transition or fusion; conditions: Crystal; DSC
[2] = Crystal; DSC

c1ccc2[nH]nnc2c1 [benzotriazole]
Molar enthalpy of transition or fusion [1]: 15.2 ± 0.7 kJ/mol | Triple point temperature [2]: 369.26 ± 1.2 K
